Laboratory results from ChEMBL document CHEMBL6078670, “Discovery of a potent and selective TRPC3 antagonist with neuroprotective effects” (Bioorg Med Chem, 2025).
pIC50: −log10 of the molar value. The source made the active and inactive calls. No cut-off for these calls is given here.

Legend:
Hippocampal neurone [1] = test: Rescuing beta-amyloid induced neuronal cell damage in Sprague-Dawley rat primary hippocampal cell culture (composed of 60% primary neuron, 20% microglia and 20% astrocyte) assessed as decrease in soluble oligomeric Abeta-containing media (7PA2 cells) induced functional synapses by measuring decrease in PSD95 clustering level at 100 nM; format: cell-based
Cytochrome P450 2C19 = Cytochrome P450 2C19 (Homo sapiens, UniProt P33261); test: Inhibition of human liver microsomes CYP2C19 measured after 10 mins incubation by LC-MS analysis; format: ADME, Microsome
[2] = target: T1, Short transient receptor potential channel 6 (Homo sapiens) (UniProt Q9Y210); test: Antagonist activity at human TRPC6 expressed in HEK293 cells assessed as inhibition of carbachol-induced activity at 10 uM measured after 48 hrs by Whole-cell patch clamp electrophysiology; format: cell-based
T1 sequence (whole entry): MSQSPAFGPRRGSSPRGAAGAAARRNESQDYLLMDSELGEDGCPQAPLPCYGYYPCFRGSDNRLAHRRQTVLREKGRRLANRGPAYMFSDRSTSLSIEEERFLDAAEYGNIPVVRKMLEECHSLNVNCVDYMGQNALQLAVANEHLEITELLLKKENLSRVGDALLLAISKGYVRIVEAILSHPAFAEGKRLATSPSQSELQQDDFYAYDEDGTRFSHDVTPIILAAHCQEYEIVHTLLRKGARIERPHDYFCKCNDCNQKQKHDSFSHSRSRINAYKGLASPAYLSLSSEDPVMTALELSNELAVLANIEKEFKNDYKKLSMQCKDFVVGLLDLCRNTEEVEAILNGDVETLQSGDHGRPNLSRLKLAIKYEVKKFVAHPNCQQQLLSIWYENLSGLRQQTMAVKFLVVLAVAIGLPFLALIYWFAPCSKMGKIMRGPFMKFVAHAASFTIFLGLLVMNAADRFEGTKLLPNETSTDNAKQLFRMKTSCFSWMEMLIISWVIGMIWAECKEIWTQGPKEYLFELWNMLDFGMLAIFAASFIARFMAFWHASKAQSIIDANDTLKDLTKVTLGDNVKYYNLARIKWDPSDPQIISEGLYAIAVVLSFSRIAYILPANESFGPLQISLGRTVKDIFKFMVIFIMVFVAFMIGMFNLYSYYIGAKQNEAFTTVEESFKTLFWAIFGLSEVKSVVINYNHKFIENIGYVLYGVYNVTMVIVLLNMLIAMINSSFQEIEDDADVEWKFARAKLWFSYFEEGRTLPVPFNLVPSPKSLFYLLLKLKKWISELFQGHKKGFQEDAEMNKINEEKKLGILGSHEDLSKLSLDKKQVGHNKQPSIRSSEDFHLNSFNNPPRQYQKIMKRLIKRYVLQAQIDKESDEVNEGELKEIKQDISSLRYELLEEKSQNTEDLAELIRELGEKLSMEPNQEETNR

Hippocampal neurone [3] = test: Rescuing beta-amyloid induced neuronal cell damage in Sprague-Dawley rat primary hippocampal cell culture (composed of 60% primary neuron, 20% microglia and 20% astrocyte) assessed as decrease in soluble oligomeric Abeta-containing media (7PA2 cells) induced synaptic toxicity at 100 nM; format: functional, cell-based
[4] = target: T2, Short transient receptor potential channel 7 (Homo sapiens) (UniProt Q9HCX4); test: Antagonist activity at human TRPC7 expressed in HEK293 cells assessed as inhibition of carbachol-induced activity at 10 uM measured after 48 hrs by Whole-cell patch clamp electrophysiology; format: cell-based
T2 sequence (whole entry): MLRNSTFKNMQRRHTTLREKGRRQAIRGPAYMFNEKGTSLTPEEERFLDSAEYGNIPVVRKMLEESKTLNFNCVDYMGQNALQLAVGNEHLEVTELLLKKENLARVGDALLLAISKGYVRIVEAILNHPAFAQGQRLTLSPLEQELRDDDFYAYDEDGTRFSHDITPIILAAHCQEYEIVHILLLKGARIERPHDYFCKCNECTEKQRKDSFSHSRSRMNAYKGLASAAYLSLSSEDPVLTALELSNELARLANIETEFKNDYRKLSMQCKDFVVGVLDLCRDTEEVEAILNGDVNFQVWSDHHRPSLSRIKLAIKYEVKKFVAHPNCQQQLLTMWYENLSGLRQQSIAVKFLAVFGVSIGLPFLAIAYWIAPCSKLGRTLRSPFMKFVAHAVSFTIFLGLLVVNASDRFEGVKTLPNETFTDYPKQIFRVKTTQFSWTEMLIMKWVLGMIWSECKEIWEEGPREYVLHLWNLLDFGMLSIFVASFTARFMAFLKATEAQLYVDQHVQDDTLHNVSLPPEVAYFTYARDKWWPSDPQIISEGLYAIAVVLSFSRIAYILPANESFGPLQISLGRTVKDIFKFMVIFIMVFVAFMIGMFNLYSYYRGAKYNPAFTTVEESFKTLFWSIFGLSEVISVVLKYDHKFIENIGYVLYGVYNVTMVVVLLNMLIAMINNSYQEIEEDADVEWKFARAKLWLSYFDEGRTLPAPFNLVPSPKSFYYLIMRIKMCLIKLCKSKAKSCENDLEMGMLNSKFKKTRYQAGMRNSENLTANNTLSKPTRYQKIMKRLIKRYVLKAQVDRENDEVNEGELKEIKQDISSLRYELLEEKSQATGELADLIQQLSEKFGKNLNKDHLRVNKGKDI

Sequence of Cytochrome P450 2C19 (P33261 whole entry): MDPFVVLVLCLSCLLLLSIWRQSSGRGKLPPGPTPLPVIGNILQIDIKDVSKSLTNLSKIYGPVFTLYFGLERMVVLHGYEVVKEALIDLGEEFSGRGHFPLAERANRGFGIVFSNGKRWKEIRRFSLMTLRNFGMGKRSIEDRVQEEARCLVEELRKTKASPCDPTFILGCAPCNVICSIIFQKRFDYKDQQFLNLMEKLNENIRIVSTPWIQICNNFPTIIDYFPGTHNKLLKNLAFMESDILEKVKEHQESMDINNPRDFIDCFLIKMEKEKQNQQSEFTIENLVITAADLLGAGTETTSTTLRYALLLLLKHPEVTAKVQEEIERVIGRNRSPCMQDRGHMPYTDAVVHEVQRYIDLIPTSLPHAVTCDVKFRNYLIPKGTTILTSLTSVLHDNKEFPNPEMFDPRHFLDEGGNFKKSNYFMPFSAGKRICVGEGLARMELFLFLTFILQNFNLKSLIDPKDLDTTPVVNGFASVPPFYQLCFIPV

pIC50 (Cytochrome P450 2C19): 4.38
Activity [2]: inactive
Activity [4]: inactive
SMILES: CCNCc1cnn(-c2ccc(-n3ccc(Cl)c(Cl)c3=O)cc2)c1C(F)(F)F
Activity (Hippocampal neurone [1]): Active
Activity (Hippocampal neurone [3]): Active
